Measured values reported in the supplement of paper PMC10883282.

Columns and labels:
Experiment in all cases: relative viability vs DMSO control (72 h) (fraction); higher = more viable cells
RD-ES = test system: RD-ES
Outline: (§1)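 ATPLite readings, expressed as percent growth and averaged over up to triplicate wells, provided relative viability. Before reading, sarcoma cell lines seeded in 384-well plates to reach 80–90% confluence received 2.5 µl of serially diluted compound after 24 h, from source plates of 10 mM to 0.0002 mM. Plates were held 72 h at 37 °C, 5% CO2, with 0.1% DMSO as vehicle and a 5 µM positive control. The data were rescaled to 1 for full and 0 for none.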

SYO-1 = test system: SYO-1
Outline: as §1

SK-ES-1 = test system: SK-ES-1
Outline: as §1

G401 = test system: G401
Outline: as §1

VA-ES-BJ = test system: VA-ES-BJ
Outline: as §1

KHOS-240S = test system: KHOS-240S
Outline: as §1

HT1080 = test system: HT1080
Outline: as §1

RD = test system: RD
Outline: as §1

SW982 = test system: SW982
Outline: as §1

SW1353 = test system: SW1353
Outline: as §1

SK-LMS-1 = test system: SK-LMS-1
Outline: as §1

MES-SA = test system: MES-SA
Outline: as §1

COc1cc(Nc2ncc3c(n2)-c2ccc(Cl)cc2C(c2c(F)cccc2OC)=NC3)ccc1C(=O)O [Alisertib]
Conditions	relative viability
G401, 0.00017 µM	1.01
G401, 0.00051 µM	0.979
G401, 0.00152 µM	0.984
G401, 0.00457 µM	0.966
G401, 0.01372 µM	0.892
G401, 0.04115 µM	0.845
G401, 0.1235 µM	0.756
G401, 0.3704 µM	0.706
G401, 1.111 µM	0.705
G401, 3.333 µM	0.637
G401, 10 µM	0.563
HT1080, 0.00017 µM	1.11
HT1080, 0.00051 µM	1.07
HT1080, 0.00152 µM	1.08
HT1080, 0.00457 µM	1.06
HT1080, 0.01372 µM	1.07
HT1080, 0.04115 µM	0.994
HT1080, 0.1235 µM	0.974
HT1080, 0.3704 µM	0.876
HT1080, 1.111 µM	0.766
HT1080, 3.333 µM	0.715
HT1080, 10 µM	0.668
KHOS-240S, 0.00017 µM	1.04
KHOS-240S, 0.00051 µM	1.04
KHOS-240S, 0.00152 µM	1.03
KHOS-240S, 0.00457 µM	1.01
KHOS-240S, 0.01372 µM	0.996
KHOS-240S, 0.04115 µM	0.884
KHOS-240S, 0.1235 µM	0.807
KHOS-240S, 0.3704 µM	0.758
KHOS-240S, 1.111 µM	0.739
KHOS-240S, 3.333 µM	0.681
KHOS-240S, 10 µM	0.622
MES-SA, 0.00017 µM	0.914
MES-SA, 0.00051 µM	0.932
MES-SA, 0.00152 µM	0.9332
MES-SA, 0.00457 µM	0.933
MES-SA, 0.01372 µM	0.9174
MES-SA, 0.04115 µM	0.621
MES-SA, 0.1235 µM	0.363
MES-SA, 0.3704 µM	0.353
MES-SA, 1.111 µM	0.328
MES-SA, 3.333 µM	0.325
MES-SA, 10 µM	0.316
RD, 0.00017 µM	1.08
RD, 0.00051 µM	1.1
RD, 0.00152 µM	1.09
RD, 0.00457 µM	1.06
RD, 0.01372 µM	1.07
RD, 0.04115 µM	1.04
RD, 0.1235 µM	0.863
RD, 0.3704 µM	0.679
RD, 1.111 µM	0.517
RD, 3.333 µM	0.517
RD, 10 µM	0.474
RD-ES, 0.00017 µM	0.95
RD-ES, 0.00051 µM	0.964
RD-ES, 0.00152 µM	0.952
RD-ES, 0.00457 µM	0.909
RD-ES, 0.01372 µM	0.881
RD-ES, 0.04115 µM	0.747
RD-ES, 0.1235 µM	0.428
RD-ES, 0.3704 µM	0.256
RD-ES, 1.111 µM	0.213
RD-ES, 3.333 µM	0.243
RD-ES, 10 µM	0.236
SK-ES-1, 0.00017 µM	1.01
SK-ES-1, 0.00051 µM	1.05
SK-ES-1, 0.00152 µM	1.05
SK-ES-1, 0.00457 µM	1.01
SK-ES-1, 0.01372 µM	0.965
SK-ES-1, 0.04115 µM	0.748
SK-ES-1, 0.1235 µM	0.197
SK-ES-1, 0.3704 µM	0.0886
SK-ES-1, 1.111 µM	0.0443
SK-ES-1, 3.333 µM	0.0464
SK-ES-1, 10 µM	0.0555
SK-LMS-1, 0.00017 µM	1.03
SK-LMS-1, 0.00051 µM	1.02
SK-LMS-1, 0.00152 µM	1.01
SK-LMS-1, 0.00457 µM	1.02
SK-LMS-1, 0.01372 µM	1
SK-LMS-1, 0.04115 µM	0.806
SK-LMS-1, 0.1235 µM	0.772
SK-LMS-1, 0.3704 µM	0.78
SK-LMS-1, 1.111 µM	0.803
SK-LMS-1, 3.333 µM	0.815
SK-LMS-1, 10 µM	0.678
SW982, 0.00017 µM	1.01
SW982, 0.00051 µM	1.01
SW982, 0.00152 µM	1.03
SW982, 0.00457 µM	1.02
SW982, 0.01372 µM	1.03
SW982, 0.04115 µM	0.968
SW982, 0.1235 µM	0.583
SW982, 0.3704 µM	0.464
SW982, 1.111 µM	0.37
SW982, 3.333 µM	0.348
SW982, 10 µM	0.361
SW1353, 0.00017 µM	0.987
SW1353, 0.00051 µM	0.972
SW1353, 0.00152 µM	0.969
SW1353, 0.00457 µM	0.961
SW1353, 0.01372 µM	0.976
SW1353, 0.04115 µM	0.921
SW1353, 0.1235 µM	0.886
SW1353, 0.3704 µM	0.908
SW1353, 1.111 µM	0.85
SW1353, 3.333 µM	0.817
SW1353, 10 µM	0.685
SYO-1, 0.00017 µM	0.934
SYO-1, 0.00051 µM	0.9195
SYO-1, 0.00152 µM	0.903
SYO-1, 0.00457 µM	0.863
SYO-1, 0.01372 µM	0.826
SYO-1, 0.04115 µM	0.783
SYO-1, 0.1235 µM	0.618
SYO-1, 0.3704 µM	0.459
SYO-1, 1.111 µM	0.371
SYO-1, 3.333 µM	0.355
SYO-1, 10 µM	0.3041
VA-ES-BJ, 0.00017 µM	0.995
VA-ES-BJ, 0.00051 µM	0.997
VA-ES-BJ, 0.00152 µM	0.984
VA-ES-BJ, 0.00457 µM	0.992
VA-ES-BJ, 0.01372 µM	0.969
VA-ES-BJ, 0.04115 µM	0.919
VA-ES-BJ, 0.1235 µM	0.747
VA-ES-BJ, 0.3704 µM	0.604
VA-ES-BJ, 1.111 µM	0.571
VA-ES-BJ, 3.333 µM	0.523
VA-ES-BJ, 10 µM	0.505
